Source: US7271164B2, “Cyclohepta[b][1,4]diazepino[6,7,1,-hi]indoles and derivatives” (Wyeth, priority 2000, dated 2007)
Counter-ions that a name gives are not always drawn.

Key:
[1] = molecular target: T1, human 5-hydroxytryptamine2C (h5HT2C) receptor (Homo sapiens, UniProt P28335); experiment: 5HT2C Receptor Binding Test Procedure ([125I] DOI displacement, CHO cell membranes)
T1 construct: expressed in transfected cells; host or cells: CHO (Chinese Hamster Ovary) cells; membrane preparation
T1 sequence (P28335 33-458): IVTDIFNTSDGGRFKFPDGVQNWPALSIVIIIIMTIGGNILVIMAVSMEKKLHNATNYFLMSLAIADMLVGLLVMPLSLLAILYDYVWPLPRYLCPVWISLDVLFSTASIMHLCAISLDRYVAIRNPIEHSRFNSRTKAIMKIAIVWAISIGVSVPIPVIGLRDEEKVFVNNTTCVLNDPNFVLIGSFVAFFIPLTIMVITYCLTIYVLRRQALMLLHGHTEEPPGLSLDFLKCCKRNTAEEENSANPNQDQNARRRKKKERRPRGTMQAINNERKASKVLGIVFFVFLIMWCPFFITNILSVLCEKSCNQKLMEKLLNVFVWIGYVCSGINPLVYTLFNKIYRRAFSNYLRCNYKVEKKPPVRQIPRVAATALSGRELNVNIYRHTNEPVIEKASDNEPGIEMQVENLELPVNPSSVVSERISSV

human 5-HT2C receptor = molecular target: T2, human 5-HT2C receptor (Homo sapiens, UniProt P28335); experiment: Stimulation of [3H] Inositol Monophosphate Production by 5-HT2C Agonists (transfected CHO cells); assay type: cell-based
T2 construct: expressed in transfected cells; host or cells: CHO cells
T2 sequence (P28335 33-458): T1 sequence (P28335 33-458)
Description: One (1) ml of maintenance medium containing 1 μCi/ml myo-[^3H] inositol was added to each well. After 48 hours labeling, the cells were washed once with 0.5 ml DMEM containing 25 mM HEPES and 10 mM LiCl, then preincubated with the medium for 30 min (antagonists were included in this period if tested). At the end of the preincubation, the medium was removed, the cells were then incubated with test compounds (in presence of antagonists if needed) for 30 min. The reaction was terminated by removal of the incubation solution and addition of 0.5 ml ice-cold 5% PCA, followed by 15 to 30 min incubation on ice. 200 μl of 0.5 M Tes/1.5 M K2CO3 was added to each well to neutralize to pH 7, and plates were left on ice for another 15 to 30 min to precipitate all salts. The liquid and solid phases were separated by centrifugation.
A portion (350 μl) of the upper aqueous phase was applied to Dowex AG-1X8 (formate form, 100-200 mesh) columns. The columns were then washed stepwise with 10 ml of water and 10 ml of 25 mM ammonium formate to remove free myo-[^3H]inositol and deacylated phosphoinositol, respectively. Finally 10 ml of 0.2 M ammonium formate solution was applied to the columns to elute [^3H] inositol monophosphate ([^3H] IP1) directly into scintillation vials. Of this eluate, 1 ml was used to determine radioactivity by scintillation counting. […]

Compound: c1cc2c3c(c1)c1c(n3CCNC2)CCCCC1 (as salt: hydrochloride) [Example 1, 1,2,3,4,9,10,11,12-Octahydro-8H-cyclohepta[b][1,4]diazepino[6,7,1-hi]indole]
- melting point: 303 to 306 °C

Compound: COc1cc(CC(C)N)c(OC)cc1I (stereo not drawn) [[^125I] DOI]
- Kd ([1]; read-out: dissociation constant, KD of [125I] DOI at the human serotonin 5HT2C receptor, saturation binding with increasing concentrations of [125I] DOI): 0.4 nM

Compound: c1cc2c3c(c1)C1CCCCCC1N3CCNC2 (stereo not drawn) (as salt: hydrochloride) [Example 2, 1,2,3,4,8,9,10,11,12,12a-Decahydro-7bH-cyclohepta[b][1,4]diazepino[6,7,1-hi]indole]
- melting point: 258 to 263 °C

Compound: CSc1ccc2c(c1)C(N1CCN(C)CC1)Cc1ccccc1S2 (stereo not drawn) [Methiothepin]
- Ki ([1]; reference compounds, [125I] DOI binding, h5HT2C in CHO membranes, read-out: Ki value and 95% confidence interval): 4.6 nM

Compound: c1cc2c3c(c1)c1c(n3CCNC2)CCCCC1 [Example 1, 1,2,3,4,9,10,11,12-Octahydro-8H-cyclohepta[b][1,4]diazepino[6,7,1-hi]indole]
- Emax (human 5-HT2C receptor; CHO, read-out: 5HT2C % Emax (5HT, 100%)): 73%
- EC50 (human 5-HT2C receptor; read-out: Stimulation of IP3 (EC50)): 500 nM
